# Results: the supplement of paper PMC10331698
# ± gives the standard deviation of the averaged measurements.
# Experiments:
# Assay in all cases: level (log10 ratio to DMSO vehicle control); higher = higher biomarker level / cell amount than vehicle control
# Details in all cases: in DMSO
# [1] = compound: C=CC(=O)OCC(F)(F)C(F)(F)C(F)(F)C(F)(F)C(F)(F)C(F)(F)C(F)(F)F [1H,1H-Perfluorooctyl acrylate]
# Description: (§1)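 BioMAP Diversity Plus panel of 12 human primary cell co-culture systems (3C, 4H, LPS, SAg, BT, BF4T, BE3C, CASM3C, HDF3CGF, KF3CT, MyoF, Mphg). Compounds were added 1 h before stimulation and left for 24 h (MyoF 48 h; BT 72 h for soluble read-outs or 6 d for IgG). Biomarkers were read by ELISA, cytotoxicity by SRB, PBMC viability and proliferation by Alamar Blue. Each well value was divided by the mean of 8 DMSO control wells on the same plate and log10 transformed; duplicate blinded samples were tested at 4 concentrations.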
# [2] = compound: FC(F)(F)C(F)(F)C(F)(F)C(F)(F)C(F)(F)C(F)(F)C(F)(F)C(F)(F)CCS [2-(Perfluorooctyl)ethanthiol]
# Description: as §1
# Perfluoroheptanoic acid = compound: O=C(O)C(F)(F)C(F)(F)C(F)(F)C(F)(F)C(F)(F)C(F)(F)F [Perfluoroheptanoic acid]
# Description: as §1
# Perfluorobutanoic acid = compound: O=C(O)C(F)(F)C(F)(F)C(F)(F)F [Perfluorobutanoic acid]
# Description: as §1
# Perfluoropropanoic acid = compound: O=C(O)C(F)(F)C(F)(F)F [Perfluoropropanoic acid]
# Description: as §1
# [3] = compound: O=C(O)C(F)(F)OC(F)(F)C(F)(F)OC(F)(F)C(=O)O [Perfluoro-3,6-dioxaoctane-1,8-dioic acid]
# Description: as §1
# [4] = compound: OCC(F)(F)OC(F)(F)C(F)(F)OC(F)(F)CO [1H,1H,8H,8H-Perfluoro-3,6-dioxaoctane-1,8-diol]
# Description: as §1
Test System,level (log10) ([1]; 6700 nM),level (log10) ([1]; 20000 nM),level (log10) ([1]; 60000 nM),level (log10) ([2]; 6700 nM),level (log10) ([2]; 20000 nM),level (log10) (Perfluoroheptanoic acid; 6700 nM),level (log10) (Perfluoroheptanoic acid; 20000 nM),level (log10) (Perfluoroheptanoic acid; 60000 nM),level (log10) (Perfluorobutanoic acid; 6700 nM),level (log10) (Perfluorobutanoic acid; 20000 nM),level (log10) (Perfluorobutanoic acid; 60000 nM),level (log10) (Perfluoropropanoic acid; 6700 nM),level (log10) (Perfluoropropanoic acid; 20000 nM),level (log10) (Perfluoropropanoic acid; 60000 nM),level (log10) ([3]; 6700 nM),level (log10) ([3]; 20000 nM),level (log10) ([3]; 60000 nM),level (log10) ([4]; 6700 nM),level (log10) ([4]; 20000 nM),level (log10) ([4]; 60000 nM)
HDF3CGF:CXCL11/I-TAC,-0.017 ± 0.011,-0.0275 ± 0.037,-0.063 ± 0.011,-0.0135 ± 0.028,-0.0355 ± 0.0092,-0.0165 ± 0.013,0.003 ± 0.011,0.01 ± 0.016,0.005 ± 0.016,-0.0035 ± 0.011,0.001 ± 0.023,-0.0325 ± 0.032,-0.018 ± 0.033,-0.0215 ± 0.057,0.0105 ± 0.011,0.0235 ± 0.012,0.012 ± 0.0042,0.0085 ± 0.00071,0.0055 ± 0.0064,0.014 ± 0.031
MyoF:Collagen III,0.0005 ± 0.013,-0.007 ± 0.024,-0.0055 ± 0.021,-0.0105 ± 0.015,-0.0345 ± 0.018,-0.013 ± 0.018,-0.011 ± 0.018,-0.0055 ± 0.0078,-0.0155 ± 0.016,0.0025 ± 0.011,-0.0145 ± 0.025,0.0165 ± 0.012,0.0135 ± 0.016,0.0385 ± 0.015,0.0035 ± 0.0078,-0.005 ± 0.017,0.0065 ± 0.015,-0.0225 ± 0.015,0.001,-0.012 ± 0.028
MyoF:CD106/VCAM-1,-0.011 ± 0.0042,-0.0095 ± 0.0035,-0.024 ± 0.0042,0.0155 ± 0.00071,-0.0735 ± 0.083,-0.013 ± 0.0071,-0.004 ± 0.016,-0.0125 ± 0.015,-0.013 ± 0.0028,-0.007 ± 0.0014,-0.0075 ± 0.015,-0.02 ± 0.013,-0.027 ± 0.016,0.0035 ± 0.016,-0.022 ± 0.016,0.0025 ± 0.005,0.0005 ± 0.019,0.0075 ± 0.019,-0.009 ± 0.0071,-0.0045 ± 0.015
3C:CD106/VCAM-1,-0.0215 ± 0.023,-0.0245 ± 0.021,-0.012 ± 0.0028,-0.016 ± 0.027,-0.0105 ± 0.036,0.0165 ± 0.018,-0.02 ± 0.0042,-0.003 ± 0.014,-0.002 ± 0.0028,-0.009 ± 0.0071,-0.0225 ± 0.011,-0.025 ± 0.0014,-0.0145 ± 0.005,0.004 ± 0.0014,0.0105 ± 0.016,-0.002 ± 0.02,0.0015 ± 0.0064,-0.0365 ± 0.021,-0.0295 ± 0.019,-0.016 ± 0.024
BE3C:MMP-1,-0.018 ± 0.016,-0.0215 ± 0.0035,0.006 ± 0.0014,-0.0055 ± 0.022,-0.032 ± 0.031,0.0345 ± 0.015,0.0405 ± 0.043,0.0865 ± 0.067,-0.004 ± 0.034,-0.0075 ± 0.013,0.021 ± 0.014,-0.02 ± 0.041,0.001 ± 0.0014,0.03 ± 0.064,-0.0085 ± 0.029,-0.023 ± 0.047,0.011 ± 0.025,0.0105 ± 0.011,-0.013 ± 0.021,0.009 ± 0.052
HDF3CGF:PAI-I,0.032 ± 0.011,0.0515 ± 0.037,0.036 ± 0.069,-0.077 ± 0.054,-0.0885 ± 0.066,-0.017 ± 0.0028,-0.0215 ± 0.0035,-0.008 ± 0.041,-0.0025 ± 0.029,0.007 ± 0.054,0.018 ± 0.052,-0.07 ± 0.1,-0.005 ± 0.12,-0.002 ± 0.04,0.0055 ± 0.015,0.0135 ± 0.029,0.0295 ± 0.012,-0.013 ± 0.023,-0.017 ± 0.017,-0.0205 ± 0.0092
CASM3C:CD142/Tissue Factor,0.0095 ± 0.005,-0.004 ± 0.0014,-0.0005 ± 0.0092,-0.0015 ± 0.13,-0.0415 ± 0.07,-0.0065 ± 0.012,0.015 ± 0.016,0.015 ± 0.071,-0.002,0.007 ± 0.0099,-0.0505 ± 0.00071,-0.0995 ± 0.039,-0.0395 ± 0.03,-0.0085 ± 0.039,-0.012 ± 0.013,-0.0275 ± 0.022,0.0215 ± 0.053,-0.014 ± 0.0099,-0.013 ± 0.023,0.0165 ± 0.0064
3C:CD62E/E-Selectin,-0.001 ± 0.0071,-0.006 ± 0.0099,0.0035 ± 0.013,-0.0065 ± 0.03,-0.0235 ± 0.036,0.007 ± 0.0042,0.0125 ± 0.0078,0.0185 ± 0.00071,-0.0155 ± 0.011,0.0075 ± 0.012,-0.0185 ± 0.0035,-0.01 ± 0.013,-0.005 ± 0.0085,0.0105 ± 0.013,0.0015 ± 0.029,-0.0185 ± 0.0092,-0.005 ± 0.02,0.0085 ± 0.0035,0.003,-0.003 ± 0.0085
CASM3C:HLA-DR,0.0075 ± 0.00071,0.002 ± 0.018,0.0045 ± 0.013,-0.0165 ± 0.012,0.003 ± 0.0028,-0.009 ± 0.0085,-0.0315 ± 0.005,-0.004 ± 0.052,0.012 ± 0.011,0.0065 ± 0.015,-0.0085 ± 0.018,0.015 ± 0.023,-0.013 ± 0.011,0.0365 ± 0.0021,-0.022 ± 0.018,-0.0385 ± 0.019,0.0135 ± 0.063,0.0315 ± 0.025,0.0075 ± 0.011,0.0045 ± 0.029
CASM3C:LDLR,0.011,0.006 ± 0.0099,0.016 ± 0.016,-0.025 ± 0.04,-0.0505 ± 0.0092,0.0175 ± 0.0092,0.012 ± 0.016,0.0125 ± 0.039,-0.013 ± 0.028,-0.018 ± 0.02,0.0095 ± 0.015,-0.0845 ± 0.07,-0.036 ± 0.054,-0.022 ± 0.073,0.015 ± 0.034,-0.0115 ± 0.0035,0.0155 ± 0.015,0.005 ± 0.0014,0.0055 ± 0.019,0.0235 ± 0.039
KF3CT:CXCL8/IL-8,-0.0205 ± 0.021,-0.0005 ± 0.019,0.0405 ± 0.0021,-0.026 ± 0.034,-0.028 ± 0.037,-0.0055 ± 0.0064,0.002,0.0105 ± 0.00071,0.012 ± 0.013,-0.009 ± 0.0085,0.0045 ± 0.013,-0.0125 ± 0.011,0.0095 ± 0.0092,0.0475 ± 0.03,-0.0015 ± 0.0078,0.0025 ± 0.033,0.026 ± 0.025,0.011 ± 0.021,0.0125 ± 0.028,0.016 ± 0.018
KF3CT:SRB,-0.007 ± 0.0014,-0.0055 ± 0.00071,-0.002 ± 0.0071,-0.0015 ± 0.0021,0.002 ± 0.0042,-0.0065 ± 0.005,-0.006 ± 0.0085,0.007 ± 0.016,-0.008 ± 0.0042,-0.0005 ± 0.00071,0.006 ± 0.018,0.005 ± 0.0071,-0.005 ± 0.0028,-0.003,-0.0185 ± 0.011,-0.0185 ± 0.0092,0.0015 ± 0.012,-0.002 ± 0.0057,-0.0025 ± 0.0021,0.0075 ± 0.023
CASM3C:SRB,-0.007 ± 0.011,0.0005 ± 0.0078,0.0005 ± 0.00071,0.002 ± 0.0085,0.0095 ± 0.0064,-0.008 ± 0.0099,-0.011 ± 0.0014,-0.0065 ± 0.012,0.0005 ± 0.0064,-0.0055 ± 0.011,0.002 ± 0.0042,0.0035 ± 0.00071,-0.0015 ± 0.00071,-0.0015 ± 0.005,0.0035 ± 0.0021,-0.006 ± 0.0028,0.0085 ± 0.005,-0.008 ± 0.0014,-0.003 ± 0.0042,-0.009 ± 0.0057
BE3C:Keratin 8/18,-0.011 ± 0.023,-0.0145 ± 0.029,-0.0045 ± 0.022,-0.0025 ± 0.0021,-0.009 ± 0.0014,-0.0135 ± 0.005,-0.0135 ± 0.0078,-0.0025 ± 0.012,-0.005 ± 0.017,0.003 ± 0.0071,-0.0195 ± 0.016,-0.0185 ± 0.0064,-0.016 ± 0.028,0.017 ± 0.023,-0.0105 ± 0.0092,-0.004 ± 0.0014,0.0005 ± 0.022,-0.0105 ± 0.0078,-0.003 ± 0.016,-0.0085 ± 0.013
